{"source": "paper PMC10017042", "about": "(Science Advances, 2023)", "key": {"HIV-1": {"test_system": "HIV-1", "details": "cited from earlier work"}, "[1]": {"assay": "Plasma drug concentrations (pyrimethamine UPLC-MS/MS, VPA assay, unbound dolutegravir) in trial participants", "type": "in vivo, human", "details": "human, plasma, 6 hours, read-out: Median unbound dolutegravir concentration", "procedure": "Self-reported adherence was assessed at each study visit, and empty pill strips were collected after the 2-week intervention phase. […] A gradient (0.3 ml/min) with two eluents was used (A: 2 mM ammonium acetate + 0.1% formic acid in water; B: 2 mM ammonium acetate + 0.1% formic acid in methanol). […] For measurement validation, we performed linearity, correctness, LOD and lower LOQ, repeatability, reproducibility, measurement uncertainty, robustness, and carryover. […] Unbound dolutegravir plasma concentrations were quantified with a validated UPLC-MS/MS bioquantification method as previously described ([61])."}}, "note": "Read-outs that look alike come from different tables or passages of the source."}
{"smiles": "C/C=C1\\NC(=O)[C@H]2CSSCC/C=C/[C@H](CC(=O)N[C@H](C(C)C)C(=O)N2)OC(=O)[C@H](C(C)C)NC1=O", "note": "[romidepsin]", "values": [{"measurement": "Effect on HIV-1 transcription", "setting": "HIV-1; additional pharmacodynamics studies", "result": "no significant effect"}, {"measurement": "Increase in CA US HIV-1 RNA", "setting": "HIV-1; initial studies", "result": "approximately threefold"}]}
{"smiles": "C[C@@H]1CCO[C@H]2Cn3cc(C(=O)NCc4ccc(F)cc4F)c(=O)c(O)c3C(=O)N12", "note": "[dolutegravir]", "values": [{"measurement": "concentration at 6 h", "setting": "[1]; those with pyrimethamine exposure", "result": 11.7, "unit": "ng/mL"}, {"measurement": "concentration at 6 h", "setting": "[1]; those without pyrimethamine exposure", "result": 10.1, "unit": "ng/mL"}]}
{"smiles": "O=C(CCCCCCC(=O)Nc1ccccc1)NO", "note": "[vorinostat]", "values": [{"measurement": "Mean fold increase in CA US HIV-1 RNA", "setting": "HIV-1; at time points during vorinostat", "result": 2.6, "unit": "fold"}, {"measurement": "HIV-1 reactivation", "setting": "HIV-1; combined with a T cell-inducing HIV-1 vaccine in PLWH who initiated cART during acute HIV-1", "result": "No reactivation"}, {"measurement": "Fold change in CA US HIV-1 RNA", "setting": "HIV-1; vorinostat treatment in postmenopausal women", "result": 1.5, "unit": "fold"}]}
